According to patent publication US6894185B2, “Substituted chiral allosteric hemoglobin modifiers” (Allós Therapeutics, Inc., priority 1999, dated 2005):

Molecular target: T1, hemoglobin (Homo sapiens, UniProt P68871+P69905)
T1 construct: The whole blood samples were collected in heparinized tubes from healthy volunteers; from tissue; host or cells: human whole blood (heparinized) from healthy volunteers
Assay: In vitro whole blood studies (multi-point tonometry and blood gas analysis)
Assay type: cell-based
Settings: Table II
Description: Structure-allosteric activity relationships were determined from the synthetic chiral effectors comparing the shift in the oxygen binding curve of Hb solutions using a Hemox-Analyzer. In vitro biological activity testing in the presence of plasma proteins was also performed on selected enantiomers and racemates (multi-point tonometry and blood gas analysis) to screen for candidates with potential clinical use. SAR studies compared the degree in shift in P50 values, i.e., the partial pressure of molecular oxygen necessary to half-saturate hemoglobin. An effector that decreases Hb oxygen affinity increases the P50 value relative to the control. Thus, the activity or potency of each analog could be expressed by the ratio P50 (effector)/P50(control). Tables and II and III summarize the p50 values obtained using human whole blood, while Tables IV and V summarize the P50 and the Hill coefficient values (n50) at half-saturation obtained using Hemox-analyzer. The slope of the log of the oxygen binding curves is known as the Hill coefficient. The Hill coefficient measures the degree of cooperativity in binding for an allosteric protein, the normal range for human blood is 2.7-3.2. Table VI presents the results from the whole blood studies given as a ΔP50 and Hill coefficient (n50) values for the enantiomers and racemates.
The whole blood samples were collected in heparinized tubes from healthy volunteers and stored over ice. The sodium salts of the compounds were prepared as described earlier. A 200 mM stock solution of the effector was prepared in DMSO. A 5.0 mM test solution was prepared from 50 μL of the 200 mM test solution and 1950 μL of whole blood. The blood samples were incubated in IL 237 tonometers (Instrumentation Laboratories, Inc. Lexington, Mass.) for approximately 10-12 min at 37° C. and equilibrated at three separate concentrations of O2 (20%, 40%, and 60%). After equilibration at each concentration of O2, a sample was removed via syringe and aspirated into a IL 1420 Automated Blood Gas Analyzer (Instrumentation Laboratories, Inc. Lexington, Mass.) and a IL 482 and IL 682 Co-oximeter (Instrumentation Laboratories, Inc. Lexington, Mass.) to determine the pH, pCO2, pO2 and the hemoglobin oxygen saturation values (sO2), respectively. The measured values for pO2 and sO2 at each oxygen saturation level were then subjected to a non-linear regression analysis using the program Scientist (Micromath, Salt Lake City, Utah) to calculate the P50 and Hill coefficient values.

T1 sequence (P69905 2-142 limits assumed): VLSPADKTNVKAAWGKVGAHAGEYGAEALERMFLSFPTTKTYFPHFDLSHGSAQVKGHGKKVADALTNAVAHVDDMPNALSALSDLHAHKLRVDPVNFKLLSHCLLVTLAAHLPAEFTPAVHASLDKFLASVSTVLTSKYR
T1 sequence (P68871 2-147 limits assumed): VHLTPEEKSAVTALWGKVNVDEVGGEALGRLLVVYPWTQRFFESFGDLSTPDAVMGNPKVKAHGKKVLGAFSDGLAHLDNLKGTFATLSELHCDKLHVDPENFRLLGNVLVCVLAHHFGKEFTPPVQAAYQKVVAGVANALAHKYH

Row | Whole Blood Δp50 mm Hg | Compound
1 | 21 mm Hg | Cc1cc(C)cc(NC(=O)C(O)c2ccc(OC(C)(C)C(=O)O)cc2)c1 (stereo not shown) [Compound 12, 2-{4-[(3,5-Dimethyl-phenylcarbamoyl)-hydroxy-methyl]-phenoxy}-2-methyl-propionic acid]
2 | 4 mm Hg | CCOC(C(=O)Nc1cc(C)cc(C)c1)c1ccc(OC(C)(C)C(=O)O)cc1 (stereo not shown) [Compound 13, 2-{4-[(3,5-Dimethyl-phenylcarbamoyl)-ethoxy-methyl]-phenoxy}-2-methyl-propionic acid]
3 | 15 mm Hg | Cc1cc(C)cc(NC(=O)Cc2ccc(OC(C(=O)O)c3ccccc3)cc2)c1 (stereo not shown) [Compound 14]
4 | 12 mm Hg | Cc1cc(C)cc(NC(=O)Cc2ccc(OC(C)(C(=O)O)c3ccccc3)cc2)c1 (stereo not shown) [Compound 15]
5 | 12 mm Hg | CCC(Oc1ccc(CC(=O)Nc2cc(C)cc(C)c2)cc1)(C(=O)O)c1ccccc1 (stereo not shown) [Compound 16]
6 | 1 mm Hg | Cc1cc(C)cc(NC(=O)C2(C)CCc3cc(OC(C)(C)C(=O)O)c(C)c(C)c3O2)c1 (stereo not shown) [Compound 17]

Same assay, conditions: Table III

Row | Compound | Whole Blood Δp50 mm Hg
7 | 1-[4-(((3,5-dimethylanilino)carbonyl)methyl) phenoxy]cyclopentane carbonyl glycine [Compound 37] | 25 mm Hg
8 | Cc1cc(C)cc(NC(=O)Cc2ccc(OC(C)(C)C(=O)NC(C)C(=O)O)cc2)c1 (stereo not shown) [Compound 22] | 17 mm Hg
9 | Cc1cc(C)cc(NC(=O)Cc2ccc(OC(C)(C)C(=O)NC(C)C(=O)O)cc2)c1 (stereo not shown) [Compound 23] | 22 mm Hg
10 | Cc1cc(C)cc(NC(=O)Cc2ccc(OC(C)(C)C(=O)NC(C(=O)O)C(C)C)cc2)c1 (stereo not shown) [Compound 24] | 22 mm Hg
11 | Cc1cc(C)cc(NC(=O)Cc2ccc(OC(C)(C)C(=O)NC(C(=O)O)C(C)C)cc2)c1 (stereo not shown) [Compound 26] | 20 mm Hg
12 | CSCCC(NC(=O)C(C)(C)Oc1ccc(CC(=O)Nc2cc(C)cc(C)c2)cc1)C(=O)O (stereo not shown) [Compound 33, 2-(2-(4-((3,5-Dimethyl-phenylcarbamoyl)-methyl)-phenoxy)-2-methyl-propionylamino)-4-methylsulfanyl-butyric acid] | 16 mm Hg
13 | CSCCC(NC(=O)C(C)(C)Oc1ccc(CC(=O)Nc2cc(C)cc(C)c2)cc1)C(=O)O (stereo not shown) [Compound 34, 2-(2-(4-((3,5-Dimethyl-phenylcarbamoyl)-methyl)-phenoxy)-2-methyl-propionylamino)-4-methylsulfanyl-butyric acid] | 11 mm Hg
14 | Cc1cc(C)cc(NC(=O)Cc2ccc(OC(C)(C)C(=O)N3CCCC3C(=O)O)cc2)c1 (stereo not shown) [Compound 35] | 12 mm Hg
15 | Cc1cc(C)cc(NC(=O)Cc2ccc(OC3(C(=O)N[C@@H](C(=O)O)C(C)C)CCCC3)cc2)c1 [Compound 42, 1-[4-(((3,5-dimethylanilino)carbonyl)methyl)phenoxy]cyclopentanecarbonyl-D-valine] | 27 mm Hg
16 | Cc1cc(C)cc(NC(=O)Cc2ccc(OC3(C(=O)N[C@@H](CCC(=O)O)C(=O)O)CCCC3)cc2)c1 [Compound 48, 1-[4-(((3,5-dimethylanilino)carbonyl)methyl)phenoxy]cyclopentanecarbonyl-L-glutamate] | 22 mm Hg
17 | CSCC[C@H](NC(=O)C1(Oc2ccc(CC(=O)Nc3cc(C)cc(C)c3)cc2)CCCC1)C(=O)O [Compound 52, 1-[4-(((3,5-dimethylanilino)carbonyl)methyl)phenoxy]cyclopentanecarbonyl-L-methionine] | 21 mm Hg
18 | Cc1cc(C)cc(NC(=O)Cc2ccc(OC3(C(=O)N[C@@H](CC(=O)O)C(=O)O)CCCC3)cc2)c1 [Compound 55, 1-[4-(((3,5-dimethylanilino)carbonyl)methyl)phenoxy]cyclopentanecarbonyl-L-aspartate] | 27 mm Hg
19 | Cc1cc(C)cc(NC(=O)Cc2ccc(OC3(C(=O)N[C@@H](CCCCNC(=O)OCc4ccccc4)C(=O)O)CCCC3)cc2)c1 [Compound 59, N^a-1-[4-(((3,5dimethylanilino)carbonyl)methyl)phenoxy]cyclopentane-carbonyl-N^e-benzyloxycarbonyl-L-lysine] | 0.4 mm Hg

Next, values leading:

Row | Whole Blood Δp50 mm Hg | Compound
20 | 20 mm Hg | Cc1cc(C)cc(NC(=O)Cc2ccc(OC(C)(C)C(=O)NC(C(=O)O)C(C)C)cc2)c1 (stereo not shown) [Compound 25]
21 | 10 mm Hg | Cc1cc(C)cc(NC(=O)Cc2ccc(OC(C)(C)C(=O)NC(Cc3ccccc3)C(=O)O)cc2)c1 (stereo not shown) [Compound 27]
22 | 20 mm Hg | Cc1cc(C)cc(NC(=O)Cc2ccc(OC(C)(C)C(=O)NC(Cc3ccccc3)C(=O)O)cc2)c1 (stereo not shown) [Compound 28]
23 | 26 mm Hg | COC(=O)C(CCC(=O)O)NC(=O)C(C)(C)Oc1ccc(CC(=O)Nc2cc(C)cc(C)c2)cc1 (stereo not shown) [Compound 30]
24 | 21 mm Hg | COC(=O)C(CC(=O)O)NC(=O)C(C)(C)Oc1ccc(CC(=O)Nc2cc(C)cc(C)c2)cc1 (stereo not shown) [Compound 31]
25 | 11 mm Hg | Cc1cc(C)cc(NC(=O)Cc2ccc(OC(C)(C)C(=O)NC(Cc3c[nH]c4ccccc34)C(=O)O)cc2)c1 (stereo not shown) [Compound 32]
26 | 18 mm Hg | Cc1cc(C)cc(NC(=O)Cc2ccc(OC(C)(C)C(=O)NC(CSCc3ccccc3)C(=O)O)cc2)c1 (stereo not shown) [Compound 36, 3-Benzylsulfanyl-2-(2-(4-((3,5-Dimethyl)-phenylcarbamoyl)-methyl-phenoxy)-2-methyl-propionylamino)-propionic acid]
27 | 30 mm Hg | Cc1cc(C)cc(NC(=O)Cc2ccc(OC3(C(=O)N[C@H](C)C(=O)O)CCCC3)cc2)c1 [Compound 38, 1-[4-(((3,5-dimethylanilino)carbonyl)methyl)phenoxy]cyclopentanecarbonyl-D-alanine]
28 | 20 mm Hg | Cc1cc(C)cc(NC(=O)Cc2ccc(OC3(C(=O)N[C@@H](Cc4ccccc4)C(=O)O)CCCC3)cc2)c1 [Compound 45, 1-[4-(((3,5-dimethylanilino)carbonyl)methyl)phenoxy]cyclopentanecarbonyl-L-phenylalanine]
29 | 20 mm Hg | Cc1cc(C)cc(NC(=O)Cc2ccc(OC3(C(=O)N[C@@H](Cc4c[nH]c5ccccc45)C(=O)O)CCCC3)cc2)c1 [Compound 47, 1-[4-(((3,5-dimethylanilino)carbonyl)methyl)phenoxy]cyclopentanecarbonyl-L-tryptophan]
30 | 7 mm Hg | Cc1cc(C)cc(NC(=O)Cc2ccc(OC3(C(=O)N[C@@H](CSCc4ccccc4)C(=O)O)CCCC3)cc2)c1 [Compound 57, 1-[4-(((3,5-dimethylanilino)carbonyl)methyl)phenoxy]cyclopentanecarbonyl S-benzyl-L-cysteine]
31 | 14 mm Hg | Cc1cc(C)cc(NC(=O)Cc2ccc(OC3(C(=O)N[C@H](CCCCNC(=O)OCc4ccccc4)C(=O)O)CCCC3)cc2)c1 [Compound 60, N^a-1-[4-(((3,5dimethylanilino)carbonyl)methyl)phenoxy]cyclopentane-carbonyl-N^e-benzyloxycarbonyl-D-lysine]
32 | −0.2 mm Hg | Cc1cc(C)cc(NC(=O)Cc2ccc(OC3(C(=O)N[C@H](CCCCN)C(=O)O)CCCC3)cc2)c1 [Compound 61, 1-[4-(((3,5-dimethylanilino)carbonyl)methyl)phenoxy]cyclopentanecarbonyl-D-lysine]
33 | 17 mm Hg | Cc1cc(C)cc(NC(=O)Cc2ccc(OC(C)(C)C(=O)NCC(=O)O)cc2)c1 [KDD4-24]
34 | 10 mm Hg | (2-(2-{4-[(3,5-Dimethyl-phenylcarbamoyl)-methyl]-phenoxy}-2-methyl-propionylamino)-4-pentanoic acid [Compound 29]
